According to patent US7307089B2, “Aryloxy quinolines and uses thereof” (Roche Palo Alto LLC, priority 2005, dated 2007):
Structures can show the parent of a compound that is named as a salt.

Experiments:
[1] = target: T1, recombinant human 5-HT6 receptor (Homo sapiens, UniProt P50406); experiment: Radioligand binding studies: competition for [3H]LSD binding in HEK293 cell membranes; conditions: [3H]LSD (5 nM) displacement, membranes of HEK293 cells stably expressing the receptor, 60 min at 37° C., pH 7.4
T1 construct: expressed in transfected cells; membranes used
Experimental: Radioligand Binding Studies
This example illustrates in vitro radioligand binding studies of compound of formula I.
The binding activity of compounds of this invention in vitro was determined as follows. Duplicate determinations of ligand affinity are made by competing for binding of [^3H]LSD in cell membranes derived from HEK293 cells stably expressing recombinant human 5-HT6 receptor. This cell line was prepared by the method described by Monsma et al., Molecular Pharmacology, Vol. 43 pp. 320-327 (1993).
All determinations were made in assay buffer containing 50 mM Tris-HCl, 10 mM MgSO4, 0.5 mM EDTA, 1 mM ascorbic acid, pH 7.4 at 37° C., in a 250 microliter reaction volume. Assay tubes containing [^3H] LSD (5 nM), competing ligand, and membrane were incubated in a shaking water bath for 60 min. at 37° C., filtered onto Packard GF-B plates (pre-soaked with 0.3% PEI) using a Packard 96 well cell harvester and washed 3 times in ice cold 50 mM Tris-HCl. Bound [^3H] LSD was determined as radioactive counts per minute using Packard TopCount.
Displacement of [3H]LSD from the binding sites was quantified by fitting concentration-binding data to a 4-parameter logistic equation:
[formula] where Hill is the Hill slope, [ligand] is the concentration of competing radioligand and IC50 is the concentration of radioligand producing half-maximal specific binding of radioligand. […]

T1 sequence (P50406 whole entry): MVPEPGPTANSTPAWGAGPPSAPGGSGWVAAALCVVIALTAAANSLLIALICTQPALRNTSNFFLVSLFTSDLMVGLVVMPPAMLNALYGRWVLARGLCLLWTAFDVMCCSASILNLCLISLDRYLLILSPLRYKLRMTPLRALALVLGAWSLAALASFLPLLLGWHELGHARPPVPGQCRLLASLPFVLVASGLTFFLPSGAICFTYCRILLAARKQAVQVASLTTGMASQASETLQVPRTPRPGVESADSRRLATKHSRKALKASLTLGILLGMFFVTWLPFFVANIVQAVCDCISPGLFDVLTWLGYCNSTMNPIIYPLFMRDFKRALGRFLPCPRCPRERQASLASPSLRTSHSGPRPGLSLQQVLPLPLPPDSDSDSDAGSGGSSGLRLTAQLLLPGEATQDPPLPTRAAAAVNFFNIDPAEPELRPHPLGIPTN

Row | melting point | Ki [1] [nM] | SMILES
1 | 143 to 144 °C |  | Cc1cnc2c(N3CCNCC3)cccc2c1Oc1ccccc1 (as salt: TFA)
2 | 254 to 255 °C (dec.) |  | COc1cccc(Oc2c(C)cnc3c(N4CCNCC4)cccc23)c1 (as salt: hydrochloride) [Compound 2, 4-(3-Methoxy-phenoxy)-3-methyl-8-piperazin-1-yl-quinoline]
3 |  | ~1 | COc1cc(N2CCNCC2)c2ncc(C)c(Oc3ccccc3)c2c1 [Compound 10, 6-Methoxy-3-methyl-4-phenoxy-8-piperazin-1-yl-quinoline]
